Legend:
[1] = system: thermal pain; conditions: 3-30 mg/kg intraperitoneally, rats; cited from earlier work
[2] = system: acute nociceptive responses; conditions: rats; cited from earlier work
[3] = system: hypothermic response to a 5-HT1-agonist; conditions: normal rats, chronic administration; compared with one of the enantiomers alone; cited from earlier work
[4] = system: neuropathic pain; conditions: chronic constriction injury model, rats; cited from earlier work
[5] = system: acute thermal pain; assay: Plantar test (radiant heat, Hargreaves): paw withdrawal latency after intrathecal injection; assay type: in vivo, Male Wistar rats; conditions: for Paw withdrawal latencies: 240 minutes after injection, mean ± sem, vehicle 11.2 ± 0.24 s, cut-off 20 sec; for overall effect on acute thermal pain over the dose range tested: 0.001 to 1 mg/kg intrathecal; for time after injection of the maximum of pro- or antinociception: intrathecal injection
Protocol: The pro- or antinociceptive properties of (+/-)-mirtazapine and its enantiomers R(-)-mirtazapine and S(+)mirtazapine, respectively, were analyzed in acute thermal pain (Hargreaves et al., Pain, 32 (1988) 77-88). Male Wistar rats weighing 350-400 g (housed three per cage, access to foot and water ad libitum, room maintained at 22°C ± 0,5°C and on a 12:12 light- dark cycle) were anesthetized with intraperitoneal (i.p.) injection of pentobarbital (60 mg/kg i.p.). The rats were implanted with polyethylene catheters (inner diameter 0.28 mm, outer diameter 0.61 mm), which were advanced from the cisterna magna to the rostral edge of the lumbar enlargement as described before (Muth-Selbach et al., Anesthesiology, 101 (2004) 753-8; Ahmadi et al., Science, 300, (2003) 2094-2097; Zeilhofer et al., J Neurosci 20 (2000) 4922-9). Rats with impaired motor function after catheter implantation were excluded from the study. Paw withdrawal latencies were tested 6-10 days after surgery at all times in the same air conditioned room. The lateral plantar surface of both hind paws was exposed to a defined radiant heat stimulus through a transparent perspex surface (Plantar Test, Hugo Basile Inc., Italy, Comerio) and paw withdrawal latencies were recorded (Hargreaves et al., op.cit.). The animal is unrestrained and unhandled during experiments. When the rat feels pain and withdraws its paw, the sudden drop of reflected radiation switches off the I.R. source and stops the reaction time counter so that the withdrawal latency to the nearest 0.1 s is determined. Paw withdrawal latencies of both hind paws were determined from 4 independent measurements for each time point. A cut-off time of 20 sec was set to avoid tissue damage.
Behavior as described above was tested before and 120, 240 min and 24 hours after application of either substance. In order to find the maximum effect over time, groups of 4 animals were tested before and 30, 60, 120, 180, 240 min and 24 hours after application of 0.1 mg/kg (+/-)-mirtazapine.
(+/-)-Mirtazapine, R(-)-mirtazapine, S(+)mirtazapine or vehicle (0.9% NaCl) were applied to the cerebrospinal fluid via intrathecal catheters in a total volume of 10 µl. Rats were randomly assigned to the different treatment groups consisting of 6 to 9 rats each. All behavioral observations were performed in a standardized blinded fashion.
After the behavioral tests, rats were sacrificed by a lethal dose of pentobarbital i.p.. Proper position of the catheter tip was verified after laminectomy and methylene blue injection through the catheter. All behavioral tests were performed with permission of the German authorities concerned with the law on experiments involving animals and were in accordance with the guidelines of the International Association for the Study of Pain.
(+/-)-Mirtazapine (1, 2, 3, 4, 10, 14b-Hexahydro-2-methyl-pyrazino-[2, 1-a] pyrido [2, 3-c] [2] benzazepin, free base), R(-)-mirtazapine and S(+)-mirtazapine maleate salt were generously donated by N.V. Organon, Oss (The Netherlands) and were of the highest quality available. All chemicals were dissolved in 0.9 % NaCl and stored in aliquots at - 70°C. Fresh dilutions were made with 0.9 % NaCl on every experimental day.
Group data are presented as mean + standard error of the mean(sem). Withdrawal latencies in the different treatment groups were analyzed by analysis of variance (repeated measurements) followed by LSD post hoc tests (SAS Software System). P ≤ 0.05 was assumed significant. In detail, for each dose (i.e. 1, 0.1, 0.01 and 0.001 mg/kg) twelve comparisons were made at five time points.

[6] = system: α2-adrenergic autoreceptors; conditions: compared with R(-)-mirtazapine; cited from earlier work
[7] = 0.001 mg/kg intrathecal (lowest dose)
[8] = 0.01 mg/kg intrathecal, time points 120, 240 minutes, 24 hours as stated per substance
[9] = 0.1 mg/kg intrathecal, time points 120, 240 minutes, 24 hours as stated per substance
[10] = 1 mg/kg intrathecal, time points 120, 240 minutes, 24 hours as stated per substance

| SMILES | antinociceptive activity in thermal pain (hot plate) [1] | acute nociceptive responses in the tail flick test [2] | hypothermic response to a 5-HT1-agonist [3] | mechanical allodynia [4] | mechanical hyperalgesia [4] | thermal hyperalgesia [4] | pro- or antinociceptive effect [5, 7] | Paw withdrawal latencies ([5]; 0.001 mg/kg intrathecal) [s] | Paw withdrawal latencies ([5]; 0.01 mg/kg intrathecal) [s] | pro- or antinociceptive effect [5, 8] | Paw withdrawal latencies ([5]; 0.1 mg/kg intrathecal) [s] | pro- or antinociceptive effect [5, 9] | Paw withdrawal latencies ([5]; 1 mg/kg intrathecal) [s] | pro- or antinociceptive effect [5, 10] | overall effect on acute thermal pain over the dose range tested [5] | time after injection of the maximum of pro- or antinociception [5] [min] | potency as blocker of α2-adrenergic autoreceptors [6] |
| --- | --- | --- | --- | --- | --- | --- | --- | --- | --- | --- | --- | --- | --- | --- | --- | --- | --- |
| CN1CCN2c3ncccc3Cc3ccccc3C2C1 (racemic) [(+/-)-mirtazapine, 1,2,3,4, 10, 14b-Hexahydro-2-methyl-pyrazino-[2,1-a] pyrido [2,3-c] [2] benzazepin] | exhibited antinociceptive activity | did not affect | potentiated | not | significantly attenuated | significantly attenuated | neither pro- nor antinociceptive | 11.5 ± 0.9 | 14.5 ± 1.0 | antinociceptive | 14.4 ± 0.3 | antinociceptive | 6.9 ± 0.4 | profound pronociceptive effect | dose-dependently exerted pro- and- antinociceptive activity | 240 | – |
| CN1CCN2c3ncccc3Cc3ccccc3[C@@H]2C1 [R(-)-mirtazapine] | – | – | – | – | – | – | neither pro- nor antinociceptive | 11.3 ± 0.9 | 15.6 ± 0.6 | antinociceptive | 13.8 ± 0.4 | antinociceptive | 13.5 ± 0.5 | antinociceptive | only elicited antinociceptive effects | 240 | – |
| CN1CCN2c3ncccc3Cc3ccccc3[C@H]2C1 [S(+)-mirtazapine] | – | – | – | – | – | – | neither pro- nor antinociceptive | 8.7 ± 0.8 | 8.4 ± 1.1 | pronociceptive | 8.1 ± 1.0 | pronociceptive | 7.4 ± 0.4 | pronociceptive | exclusively pronociceptive | 240 | more potent blocker |
